# Experimental data taken from article PMC5518657, “Deacetylation of mycothiol-derived ‘waste product’ triggers the last biosynthetic steps of lincosamide antibiotics” (Chemical Science, 2015).
# Molecular target: T1, LmbF (Streptomyces lincolnensis, UniProt A9Y8R7)
# T1 construct: recombinant protein; details only in ESI
# Test: in vitro turnover of […] with and without PLP, LC-MS
# Format: biochemical
# Details: no turnover without PLP; covalent binding to the substrate amino group is proposed
# T1 sequence (A9Y8R7 entry or part of it): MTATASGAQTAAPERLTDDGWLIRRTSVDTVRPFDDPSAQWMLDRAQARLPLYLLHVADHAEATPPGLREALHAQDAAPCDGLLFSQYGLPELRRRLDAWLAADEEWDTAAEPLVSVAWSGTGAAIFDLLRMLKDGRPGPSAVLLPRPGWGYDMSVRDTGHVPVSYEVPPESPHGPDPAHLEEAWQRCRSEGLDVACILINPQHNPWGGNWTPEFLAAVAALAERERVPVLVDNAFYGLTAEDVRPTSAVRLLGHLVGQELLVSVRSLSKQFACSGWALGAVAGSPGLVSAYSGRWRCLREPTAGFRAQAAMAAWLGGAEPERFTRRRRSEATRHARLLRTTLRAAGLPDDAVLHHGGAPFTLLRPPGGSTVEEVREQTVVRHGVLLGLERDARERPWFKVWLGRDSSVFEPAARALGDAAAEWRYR
smiles,measurement,value
Cc1ncc(COP(=O)(O)O)c(C=O)c1O [pyridoxal-5′-phosphate],"in vitro turnover of 479 with and without PLP, LC-MS",LmbF failed to carry out this reaction in the absence of PLP
